Positions of bridges follow the written chain, without caps; N, C: chain ends. Non-standard residues stand in square brackets, D forms with d. Residues, ends and D or L forms follow the SMILES beside them. βAla = NCCC(=O)O
Columns and labels:
[1] = system: proteasome in H125 cells; experiment: Proteasome-Glo Chymotrypsin-Like Cell-Based Assay; parameters: species or system human; conditions: H125, CIGB-300 30 min, luminescence
Method: Proteasome activity was assessed in H125 cells using the Proteasome-Glo Chymotrypsin-Like Cell-Based Assay (Promega) following manufacturer’s instructions. Briefly, H125 cells were plated onto 96-well plates and 24 h later treated with CIGB-300 (30 min) or with Bortezomib (4 h). Briefly: 100 µl of Proteasome-Glo™ Cell-Based Reagent were added to each 100 µl of sample and incubated at RT for 10 min. Luminescence emission was measured with a Multimode Microplate Reader, Synergy luminometer (Biotek).

[2] = system: A549 cells; experiment: Cell viability, MTS assay, monolayer; format: cell-based, human; conditions: dose selected from the viability results
Method: (§1) We used two human non-small cell lung cancer (NSCLC) derived cell lines: the adenosquamous cell carcinoma NCI-H125 (CRL-5801) and the adenocarcinoma NIH-A549 (CCL-185). The murine L Wnt-3A cell line (CRL-2647) was used in order to produce conditioned media (CM) containing the wnt3a factor, following ATCC’s instructions. All cell lines were obtained from ATCC. H125 was grown in RPMI medium supplemented with 10% FBS and 80 µg/ml gentamycin. A549 and L cells were grown in DMEM media, with the above mentioned supplementation. All cell lines were cultured at 37 °C in a humidified air atmosphere with 5% CO2.
(§2) To assess the effect of CIGB-300 or cisplatin on cell viability, 1 × 10^4 cells/well were seeded into 96 well plates in standard culture conditions. Twenty-four hours later cells were treated with different doses of CIGB-300 (25–400 μM) or cisplatin (0.3–30 μM) during 72 h. Cell proliferation was evaluated after 72 h using the MTS assay (Celltiter 96TM Non Radioactive Proliferation Assay, Promega), as described by the manufacturer. Data were analyzed using the R package “ic50” [33] in order to determine the IC50 values for each drug. Alternatively, proliferative potential was determined by assessing cell number. Briefly, cells were seeded onto 35 mm Petri dishes, treated and after 72 h wells were washed twice with PBS, trypsinized, centrifuged, resuspended in a proper volume and finally counted using an hemocytometer and trypan blue exclusion. For apoptosis determination, A549 and A549-cispR cells growing on glass coverslips were treated with 300 μM of CIGB-300 for 18 h and then stained with Acridine orange (10 μg/ml) and Ethidium bromide (10 μg/ml). Visualization was performed with a Nikon, Eclipse E400 epifluorescence microscope. Uniform green nuclei with organized structure were considered as live cells. Bright green or orange to red nuclei were classified as early or late apoptotic cells respectively. Uniformly orange to red nuclei with organized structure were ascribed as necrotic cells. The percentage of dead cells was determined for each cell line.

[3] = system: H125 cells; experiment: Cell viability, MTS assay, monolayer; format: cell-based, human
Method: as §1, §2

[4] = 24 h post intravenous injection; cited from earlier work
[5] = up to 40 mg/kg/day intravenously; cited from earlier work
[6] = system: NF-κB-RE-luc in H125 cells; experiment: NF-κB-dependent reporter gene expression; format: cell-based, human; conditions: H125, PMA 16 nM 6 h, CIGB-300 IC25 during first hour, dual luciferase
Method: H125 cells were transiently co-transfected with NF-κB-RE-luc Luciferase Reporter Vector pGL4.32 and the Renilla Luciferase Control Reporter Vector pRL-TK (Promega, Madison, WI) in a 10:1 ratio, using Fugene (Promega) following manufacturer’s instructions. Briefly, 1 × 10^5 cells/well were seeded onto 24-well plates and transfected the next day. Six hours after adding transfection reagents, cells were washed and complete media was added. After an overnight recovery, cells were treated for 6 h with PMA (16 nM), in presence or not of CIGB-300 (IC25) during the first hour. Finally cells were lysed and the luciferase activities were determined using the Dual-Luciferase Reporter Assay System (Promega) and normalized to the constitutive Renilla luciferase activity.

[7] = system: H125 spheroids; experiment: 3D growth inhibition assay, multicellular tumor spheroids; format: cell-based, human; conditions: IC25 and IC50 doses of monolayers, after 5 days of treatment, medium replaced every 48 h
[8] = system: NF-κB p65/relA in H125 cells; experiment: Western blot of nuclear p65/RelA; format: cell-based, human; conditions: H125, low-lethal dose (IC25), Western blot of nuclear extracts, with or without PMA
Method: (§3) For Wnt/β-CATENIN pathway studies, H125 sub-confluent monolayers were first incubated during 24 h with 50% of CM containing the wnt3a factor and then treated for another 6 h with a low-lethal dose of CIGB-300 (IC25) or during 2 h with the CK2 competitive inhibitor TBB (25 μM) as a control. […] For the analysis of NF-κB downstream targets, H125, A549 or A549-Rcisp cells were incubated for 2 h with CIGB-300 (IC50). In the case of Bortezomib, cells were previously pretreated with 8 nM of this drug during 4 h.
(§4) In order to determine β-CATENIN expression levels, cytoplasmic proteins were extracted using saponin buffer. Briefly, monolayer cultures were incubated for 20 min with ice-cold 0.1% saponin lysis buffer (25 mM Hepes, 75 mM potassium acetate and 0.1% saponin plus phosphatase and protease inhibitors). The extraction procedure was carried out twice and the extracts were pooled prior to their centrifugation. For NF-κB detection, nuclear and cytoplasmic proteins were separated by differential centrifugation following Abcam protocol. Briefly, semiconfluent monolayers were washed twice with ice-cold PBS and then collected in 250 μl of Fractionation Buffer (HEPES 20 mM, KCl 10 mM, MgCl2 2 mM, EDTA 1 mM and 2-Mercaptoethanol […]) with protease and phosphatase inhibitors by scrapping with a Teflon scrapper. […]

[9] = system: A549 and A549-cispR cells; experiment: Apoptosis, acridine orange/ethidium bromide double staining; format: cell-based, human; conditions: 300 μM CIGB-300, 18 h
Method: To assess the effect of CIGB-300 or cisplatin on cell viability, 1 × 10^4 cells/well were seeded into 96 well plates in standard culture conditions. Twenty-four hours later cells were treated with different doses of CIGB-300 (25–400 μM) or cisplatin (0.3–30 μM) during 72 h. Cell proliferation was evaluated after 72 h using the MTS assay (Celltiter 96TM Non Radioactive Proliferation Assay, Promega), as described by the manufacturer. Data were analyzed using the R package “ic50” [33] in order to determine the IC50 values for each drug. Alternatively, proliferative potential was determined by assessing cell number. Briefly, cells were seeded onto 35 mm Petri dishes, treated and after 72 h wells were washed twice with PBS, trypsinized, centrifuged, resuspended in a proper volume and finally counted using an hemocytometer and trypan blue exclusion. For apoptosis determination, A549 and A549-cispR cells growing on glass coverslips were treated with 300 μM of CIGB-300 for 18 h and then stained with Acridine orange (10 μg/ml) and Ethidium bromide (10 μg/ml). Visualization was performed with a Nikon, Eclipse E400 epifluorescence microscope. Uniform green nuclei with organized structure were considered as live cells. Bright green or orange to red nuclei were classified as early or late apoptotic cells respectively. […] The percentage of dead cells was determined for each cell line.

[10] = system: β-CATENIN in H125 cells; experiment: Western blot of cytoplasmic β-CATENIN; format: cell-based, human
Method: as §3, §4

[11] = target: T1, α7/C8 (PSMA3) in H125 cells (Homo sapiens, UniProt P25788); experiment: Confocal immunofluorescence, co-occurrence with α7/C8; format: cell-based; conditions: H125, biotin-conjugated CIGB-300 30 min, cells with cytoplasmic signal, Manders coefficient
T1 construct: endogenous in cells; host or cells: H125 (NCI-H125) human NSCLC cells
Method: H125 cells growing on glass coverslips were treated with biotin-conjugated CIGB-300 for 30 min, washed twice with PBS, fixed in ice cold paraformaldehyde, permeabilized and blocked with PBS containing 5% bovine serum albumin for 1 h at RT. α7/C8 protein was detected by incubation with a specific primary antibody diluted in PBS containing 5% BSA, followed by an incubation with a secondary antibody coupled to Alexa 647 and with Streptavidin-FITC conjugated for 1 h at RT. Nuclei were stained with DAPI. Images were obtained in a LSM 510 Meta confocal Zeiss microscope. Confocal images were processed for presentation with ImageJ. Background of each channel was subtracted. Pearson’s and Mander’s coefficients were calculated using the JACoP plugin [38]. Single cell analysis for 15–20 representative cells was performed on three independent experiments.

[12] = system: A549 and A549-cispR cells; experiment: Viability by cell number after cisplatin; format: cell-based, human; conditions: cell number 72 h after cisplatin, untreated set as 100%
Text: Parental A549 cells were maintained in culture during the same period.

| SMILES | proteasomal activity [1] | IC25 (low-lethal dose) [2] [µM] | IC25 (low-lethal dose) ([3]; dose selected from the viability results) [µM] | peptide uptake at tumor site [4] | tolerability of high doses [5] | NF-κB transcriptional response [6] | volume of treated spheroids compared with untreated controls [7] | nuclear levels of p65/relA [8] | number of dead cells on A549-cispR vs A549 [9] | β-CATENIN cytoplasmic accumulation with active Wnt pathway ([10]; H125, 24 h 50% CM with wnt3a, then CIGB-300 IC25 6 h or TBB 25 μM 2 h) | basal levels of cytoplasmic β-CATENIN ([10]; H125, low-lethal dose CIGB-300 6 h, no wnt3a) | α7/C8 coincident with CIGB-300 presence [11] | IC50 ([3]; MTS assay, 72 h treatment, R package ic50, three independent experiments) [µM] | viability of A549-cispR relative to parental A549 after cisplatin treatment [12] |
| --- | --- | --- | --- | --- | --- | --- | --- | --- | --- | --- | --- | --- | --- | --- |
| CSCC[C@@H]1NC(=O)[C@H](Cc2c[nH]c3ccccc23)NC(=O)[C@@H](NC(=O)CCNC(=O)[C@H](CCC(N)=O)NC(=O)[C@@H]2CCCN2C(=O)[C@@H]2CCCN2C(=O)[C@H](CCCNC(=N)N)NC(=O)[C@H](CCCNC(=N)N)NC(=O)[C@H](CCCNC(=N)N)NC(=O)[C@H](CCC(N)=O)NC(=O)[C@H](CCCNC(=N)N)NC(=O)[C@H](CCCNC(=N)N)NC(=O)[C@H](CCCCN)NC(=O)[C@H](CCCCN)NC(=O)[C@H](CCCNC(=N)N)NC(=O)CN)CSSC[C@@H](C(=O)O)NC(=O)[C@H]([C@@H](C)O)NC(=O)CNC(=O)[C@H](CC(C)C)NC(=O)[C@H](Cc2c[nH]cn2)NC(=O)[C@H](CCCNC(=N)N)NC(=O)[C@@H]2CCCN2C(=O)[C@H](CO)NC1=O [CIGB-300] (H-GRKKRRQRRRPPQ[βAla]CWMSPRHLGTC-OH; disulfide 15-25; N-terminus and C-terminus assumed) | increased proteasomal activity | 150 | 60 | up to 1.5% | safe, well tolerated and non-toxic | decreased NF-κB transcriptional response | significantly lower | reduced the nuclear levels | significantly increased | partially reverted | not reduced | More than 80% | – | – |
| N.N.[Cl][Pt][Cl] [cisplatin, cisdiammine-dichloro-platinum, reference compound] | – | – | – | – | – | – | – | – | – | – | – | – | 1 | twofold higher |
